Test results published in patent US20260262643A1, “HERBICIDAL BENZOXAZINES” (FMC CORPORATION, priority 2022, published 2026).

Assays:
pigweed, palmer [1] = test: Test C preemergence; assay type: in vivo, Amaranthus palmeri; settings: 0 to 100 scale (0 no effect, 100 complete control); for Pigweed, Palmer plant response rating: preemergence
Summary of the method: (§1)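 Pre: seeds in loam/sand, directed soil spray. Post: 1–2 leaf plants, 2–10 cm. Cmpd in non-phytotoxic solvent + surfactant. Greenhouse 10 d; visual rating vs untreated, 0 = none, 100 = complete control.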

corn [2] = test: Test C postemergence; assay type: in vivo, Zea mays; settings: 10 days
Summary of the method: as §1

rice = test: Test D flooded paddy test; assay type: in vivo, Oryza sativa; settings: 250 g ai/ha, applied to paddy water, visual rating after 13 to 14 days, scale 0 to 100 (0 no effect, 100 complete control)
Summary of the method: (§2)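 Seedlings reached the 2-leaf stage, then pots were flooded to 3 cm over the soil surface. Compound was applied into the water, depth was maintained, and plants stayed in the greenhouse 13 to 14 days before visual scoring (0–100) relative to controls.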

ragweed [3] = test: Test C preemergence; assay type: in vivo, Ambrosia artemisiifolia; settings: 0 to 100 scale (0 no effect, 100 complete control); for Ragweed plant response rating: preemergence
Summary of the method: as §1

blackgrass [4] = test: Test C postemergence; assay type: in vivo, Alopecurus myosuroides; settings: 10 days
Summary of the method: as §1

horseweed = test: Test C postemergence; assay type: in vivo, Erigeron canadensis; settings: 10 days
Summary of the method: as §1

blackgrass [5] = test: Test C preemergence; assay type: in vivo, Alopecurus myosuroides; settings: 0 to 100 scale (0 no effect, 100 complete control); for Plant response rating, Blackgrass: Preemergence, 500 g ai/ha, visual rating after 10 days; for Blackgrass plant response rating: Test C, preemergence, 125 g ai/ha
Summary of the method: as §1

galium = test: Test C postemergence; assay type: in vivo, Galium aparine; settings: 10 days
Summary of the method: as §1

corn [6] = test: Test C preemergence; assay type: in vivo, Zea mays; settings: 0 to 100 scale (0 no effect, 100 complete control); for Corn plant response rating: preemergence
Summary of the method: as §1

ryegrass, Italian [7] = test: Test C postemergence; assay type: in vivo, Lolium multiflorum; settings: 10 days
Summary of the method: as §1

soybean [8] = test: Test C postemergence; assay type: in vivo, Glycine max; settings: 10 days
Summary of the method: as §1

kochia [9] = test: Test C postemergence; assay type: in vivo, Bassia scoparia; settings: 10 days
Summary of the method: as §1

wheat [10] = test: Test C postemergence; assay type: in vivo, Triticum aestivum; settings: 10 days
Summary of the method: as §1

sedge, umbrella = test: Test D flooded paddy test; assay type: in vivo, Cyperus difformis; settings: 250 g ai/ha, applied to paddy water, visual rating after 13 to 14 days, scale 0 to 100 (0 no effect, 100 complete control)
Summary of the method: as §2

oat, wild [11] = test: Test C postemergence; assay type: in vivo, Avena fatua; settings: 10 days
Summary of the method: as §1

barnyardgrass [12] = test: Test D flooded paddy test; assay type: in vivo, Echinochloa crus-galli; settings: 250 g ai/ha, applied to paddy water, visual rating after 13 to 14 days, scale 0 to 100 (0 no effect, 100 complete control)
Summary of the method: as §2

green foxtail [13] = test: Test C postemergence; assay type: in vivo, Setaria viridis; settings: 10 days
Summary of the method: as §1

ryegrass, Italian [14] = test: Test C preemergence; assay type: in vivo, Lolium multiflorum; settings: 0 to 100 scale (0 no effect, 100 complete control); for Ryegrass, Italian plant response rating: preemergence
Summary of the method: as §1

green foxtail [15] = test: Test C preemergence; assay type: in vivo, Setaria viridis; settings: 0 to 100 scale (0 no effect, 100 complete control); for Foxtail, Green plant response rating: preemergence
Summary of the method: as §1

soybean [16] = test: Test C preemergence; assay type: in vivo, Glycine max; settings: 0 to 100 scale (0 no effect, 100 complete control); for Soybean plant response rating: preemergence
Summary of the method: as §1

barnyardgrass [17] = test: Test C postemergence; assay type: in vivo, Echinochloa crusgalli; settings: 10 days
Summary of the method: as §1

pigweed, palmer [18] = test: Test C postemergence; assay type: in vivo, Amaranthus palmeri; settings: 10 days
Summary of the method: as §1

wheat [19] = test: Test C preemergence; assay type: in vivo, Triticum aestivum; settings: 0 to 100 scale (0 no effect, 100 complete control); for Wheat plant response rating: preemergence
Summary of the method: as §1

ducksalad = test: Test D flooded paddy test; assay type: in vivo, Heteranthera limosa; settings: 250 g ai/ha, applied to paddy water, visual rating after 13 to 14 days, scale 0 to 100 (0 no effect, 100 complete control)
Summary of the method: as §2

kochia [20] = test: Test C preemergence; assay type: in vivo, Bassia scoparia; settings: 0 to 100 scale (0 no effect, 100 complete control); for Kochia plant response rating: preemergence
Summary of the method: as §1

barnyardgrass [21] = test: Test C preemergence; assay type: in vivo, Echinochloa crusgalli; settings: 0 to 100 scale (0 no effect, 100 complete control); for Barnyardgrass plant response rating: 125 g ai/ha, preemergence; for Plant response rating, Barnyardgrass: Preemergence, 500 g ai/ha, visual rating after 10 days
Summary of the method: as §1

oat, wild [22] = test: Test C preemergence; assay type: in vivo, Avena fatua; settings: 0 to 100 scale (0 no effect, 100 complete control); for Oat, Wild plant response rating: preemergence
Summary of the method: as §1

ragweed [23] = test: Test C postemergence; assay type: in vivo, Ambrosia artemisiifolia; settings: 10 days
Summary of the method: as §1

[24] = Preemergence, 500 g ai/ha, visual rating after 10 days
[25] = 125 g ai/ha, postemergence, 0 to 100 scale, 0 no effect, 100 complete control
[26] = Postemergence, 500 g ai/ha, visual 0 to 100 scale (0 no effect, 100 complete control)

Structure (SMILES): CC(C)c1ncn(-c2cc3c(c(C(=O)N4C[C@H](C)Oc5c(Cl)cccc54)c2)OCCCO3)n1 [Compound 158]
- Plant response rating, Pigweed, Palmer (pigweed, palmer [1]; [24]): 100
- Pigweed, Palmer plant response rating (pigweed, palmer [1]; Test C, 125 g ai/ha): 100
- Plant response rating, Corn (corn [2]; [25]): 50
- Plant response rating, Corn (corn [2]; [26]): 60
- Plant response rating, Rice (Flood) (rice): 0
- Plant response rating, Ragweed (ragweed [3]; [24]): 90
- Ragweed plant response rating (ragweed [3]; Test C, 125 g ai/ha): 80
- Plant response rating, Blackgrass (blackgrass [4]; [25]): 40
- Plant response rating, Blackgrass (blackgrass [4]; [26]): 90
- Plant response rating, Horseweed (horseweed; [25]): 20
- Plant response rating, Horseweed (horseweed; [26]): 20
- Plant response rating, Blackgrass (blackgrass [5]): 60
- Blackgrass plant response rating (blackgrass [5]): 40
- Plant response rating, Galium (galium; [25]): 100
- Plant response rating, Galium (galium; [26]): 90
- Plant response rating, Corn (corn [6]; [24]): 20
- Corn plant response rating (corn [6]; Test C, 125 g ai/ha): 0
- Plant response rating, Ryegrass, Italian (ryegrass, Italian [7]; [25]): 40
- Plant response rating, Ryegrass, Italian (ryegrass, Italian [7]; [26]): 70
- Plant response rating, Soybean (soybean [8]; [25]): 100
- Plant response rating, Soybean (soybean [8]; [26]): 100
- Plant response rating, Kochia (kochia [9]; [25]): 70
- Plant response rating, Kochia (kochia [9]; [26]): 90
- Plant response rating, Wheat (wheat [10]; [25]): 30
- Plant response rating, Wheat (wheat [10]; [26]): 70
- Plant response rating, Sedge, Umbrella (Flood) (sedge, umbrella): 75
- Plant response rating, Oat, Wild (oat, wild [11]; [25]): 30
- Plant response rating, Oat, Wild (oat, wild [11]; [26]): 60
- Plant response rating, Barnyardgrass (Flood) (barnyardgrass [12]): 25
- Plant response rating, Foxtail, Green (green foxtail [13]; [25]): 60
- Plant response rating, Foxtail, Green (green foxtail [13]; [26]): 90
- Plant response rating, Ryegrass, Italian (ryegrass, Italian [14]; [24]): 80
- Ryegrass, Italian plant response rating (ryegrass, Italian [14]; Test C, 125 g ai/ha): 80
- Plant response rating, Foxtail, Green (green foxtail [15]; [24]): 100
- Foxtail, Green plant response rating (green foxtail [15]; Test C, 125 g ai/ha): 100
- Plant response rating, Soybean (soybean [16]; [24]): 80
- Soybean plant response rating (soybean [16]; Test C, 125 g ai/ha): 50
- Plant response rating, Barnyardgrass (barnyardgrass [17]; [25]): 40
- Plant response rating, Barnyardgrass (barnyardgrass [17]; [26]): 70
- Plant response rating, Pigweed, Palmer (pigweed, palmer [18]; [25]): 80
- Plant response rating, Pigweed, Palmer (pigweed, palmer [18]; [26]): 100
- Plant response rating, Wheat (wheat [19]; [24]): 40
- Wheat plant response rating (wheat [19]; Test C, 125 g ai/ha): 10
- Plant response rating, Ducksalad (Flood) (ducksalad): 65
- Plant response rating, Kochia (kochia [20]; [24]): 90
- Kochia plant response rating (kochia [20]; Test C, 125 g ai/ha): 70
- Barnyardgrass plant response rating (barnyardgrass [21]): 60
- Plant response rating, Barnyardgrass (barnyardgrass [21]): 90
- Plant response rating, Oat, Wild (oat, wild [22]; [24]): 80
- Oat, Wild plant response rating (oat, wild [22]; Test C, 125 g ai/ha): 20
- Plant response rating, Ragweed (ragweed [23]; [25]): 90
- Plant response rating, Ragweed (ragweed [23]; [26]): 80

Structure (SMILES): CCc1ccc(-n2cnc(C(C)(C)O)n2)cc1C(=O)N1C[C@H](C)Oc2c(Cl)cccc21 [Compound 277]
- Pigweed, Palmer plant response rating (pigweed, palmer [1]; 500 g ai/ha): 100
- Pigweed, Palmer plant response rating (pigweed, palmer [1]; Test C, 125 g ai/ha): 100
- Plant response rating, Corn (corn [2]; [25]): 90
- Plant response rating, Corn (corn [2]; [26]): 100
- Plant response rating, Rice (Flood) (rice): 15
- Ragweed plant response rating (ragweed [3]; 500 g ai/ha): 70
- Ragweed plant response rating (ragweed [3]; Test C, 125 g ai/ha): 30
- Plant response rating, Blackgrass (blackgrass [4]; [25]): 80
- Plant response rating, Blackgrass (blackgrass [4]; [26]): 90
- Plant response rating, Horseweed (horseweed; [25]): 0
- Plant response rating, Horseweed (horseweed; [26]): 30
- Plant response rating, Blackgrass (blackgrass [5]): 90
- Blackgrass plant response rating (blackgrass [5]): 80
- Plant response rating, Galium (galium; [25]): 100
- Plant response rating, Galium (galium; [26]): 100
- Corn plant response rating (corn [6]; 500 g ai/ha): 80
- Corn plant response rating (corn [6]; Test C, 125 g ai/ha): 50
- Plant response rating, Ryegrass, Italian (ryegrass, Italian [7]; [25]): 90
- Plant response rating, Soybean (soybean [8]; [25]): 100
- Plant response rating, Kochia (kochia [9]; [25]): 70
- Plant response rating, Wheat (wheat [10]; [25]): 50
- Plant response rating, Sedge, Umbrella (Flood) (sedge, umbrella): 98
- Plant response rating, Oat, Wild (oat, wild [11]; [25]): 80
- Plant response rating, Barnyardgrass (Flood) (barnyardgrass [12]): 55
- Plant response rating, Foxtail, Green (green foxtail [13]; [25]): 90
- Plant response rating, Foxtail, Green (green foxtail [13]; [26]): 90
- Ryegrass, Italian plant response rating (ryegrass, Italian [14]; 500 g ai/ha): 100
- Ryegrass, Italian plant response rating (ryegrass, Italian [14]; Test C, 125 g ai/ha): 80
- Foxtail, Green plant response rating (green foxtail [15]; 500 g ai/ha): 100
- Foxtail, Green plant response rating (green foxtail [15]; Test C, 125 g ai/ha): 100
- Soybean plant response rating (soybean [16]; 500 g ai/ha): 100
- Soybean plant response rating (soybean [16]; Test C, 125 g ai/ha): 90
- Plant response rating, Barnyardgrass (barnyardgrass [17]; [25]): 100
- Plant response rating, Barnyardgrass (barnyardgrass [17]; [26]): 100
- Plant response rating, Pigweed, Palmer (pigweed, palmer [18]; [25]): 80
- Wheat plant response rating (wheat [19]; 500 g ai/ha): 80
- Wheat plant response rating (wheat [19]; Test C, 125 g ai/ha): 50
- Plant response rating, Ducksalad (Flood) (ducksalad): 40
- Kochia plant response rating (kochia [20]; 500 g ai/ha): 90
- Kochia plant response rating (kochia [20]; Test C, 125 g ai/ha): 70
- Plant response rating, Barnyardgrass (barnyardgrass [21]): 100
- Barnyardgrass plant response rating (barnyardgrass [21]; Test C): 100
- Oat, Wild plant response rating (oat, wild [22]; 500 g ai/ha): 90
- Oat, Wild plant response rating (oat, wild [22]; Test C, 125 g ai/ha): 80
- Plant response rating, Ragweed (ragweed [23]; [25]): 80
